Patent US20070025960A1 (priority 2003, published 2007)

Tests used:
γ/δ T cells [1] = conditions: in vivo, iv; cited from earlier work
Vγ2/Vδ2 T cells [2] = tested on: Vγ2/Vδ2 T cells
Vγ2/Vδ2 T cells [3] = tested on: Vγ2/Vδ2 T cells; remark: listed apart in the source
γ/δ T cells [4] = conditions: cited from earlier work

NCCC(O)(P(=O)(O)O)P(=O)(O)O [pamidronate, Pamidronate]
change in γ/δ T cell count after drug infusion (γ/δ T cells [1]): increase in γ/δ T cell count

NCCCC(O)(P(=O)(O)O)P(=O)(O)O [Alendronate]
subset showing intracellular IFNγ (Vγ2/Vδ2 T cells [2]): restricted to the Vγ2/Vδ2 subset
total CD3+ T cells that produced IFNγ (Vγ2/Vδ2 T cells [3]): 5-10%

O=P(O)(O)C(O)(Cc1cccnc1)P(=O)(O)O [Risedronate]
activity for stimulating γ/δ T cells (γ/δ T cells [4]): highly active
